29 compounds from US8883827B2, “Azole derivatives as WTN pathway inhibitors” (Oslo University Hospital HF, priority 2009, dated 2014) can be followed below.

This experiment deals with canonical Wnt signaling. The experiment in a line: ST-Luc (SuperTOPFlash) Luciferase assay in HEK293 cells, 30% Wnt3a-CM. The format is cell-based. To be noted: Homo sapiens, HEK293; 10 μM compound, 30% Wnt3a-CM, 24 h; relative to DMSO control. On the procedure:
Inhibition of Wnt signaling by compound No. 1 was quantified in vitro using a Luciferase assay in HEK293 cells transiently transfected with SuperTOPFlash plasmid (ST-Luc) (Veeman M T et al., Curr. Biol. 13: 680-685, 2003) at concentrations from 0.1-10 μM. HEK293 cells were purchased from ATCC (American Type Culture Collection) and maintained according to suppliers recommendations.
Transfection was performed using 80000 HEK293 cells seeded in 48-well plates coated with poly-L lysine. After 24 hours, 0.25 μg total plasmid DNA (0.23 μg SuperTOPFlash+0.02 μg pRL-TK (Renilla)—Promega) and 0.75 μl FuGENE6 (Roche) was combined in a total volume in 25 μl Opti-MEM® (Invitrogen) as described by the manufacturer (Roche). The transfection mixture was added to the plated cells and media were changed after 24 hours.
The Luciferase assay was performed by incubating transfected cells for 24 hours with various concentrations of compound No. 1 in 30% Wnt3a-CM (Wnt3a containing conditioned medium from L Wnt3a cells was harvested as described by ATCC). All treated reporter cells were finally lysed and the firefly luciferase and Renilla activities were measured on a 20/20n Luminometer (Turner BioSystems) as described in the Dual-Glo™ Luciferase Assay System Technical Manual (Promega).
HEK293 cells were transfected, grown and assayed as described in Example 22. 24 hours after seeding, the cells were incubated for an additional 24 hours with 10 μM concentrations of compounds in 30% Wnt3a-CM.
The percent activities shown in Table 3 are calculated relative to DMSO as a control. Some values shown are averages of multiple measurements. Compound XAV939 (Novartis; Huang et al., Nature (2009), 461, pp. 614-20) which is used as a positive control, has an activity of 7%.
For `Cc1ccc(-n2c(SCc3nc(C(C)(C)C)no3)nnc2-c2ccncc2)cc1` [Compound 81], the activity at 10 µM was found to be 89%.

Compound `Cc1ccc(-c2noc(CSc3nnc(-c4ccncc4)n3-c3ccc(Cl)cc3)n2)cc1` [Compound 3] returned an activity at 10 µM of 32.5%.

The compound `Cc1ccc(NC(=O)CSc2nnc(-c3ccncc3)n2-c2ccc(C)cc2)cc1` [Compound 92] had an activity at 10 µM of 84%.

For the compound `N#Cc1ccc(-c2nnc(CSc3nnc(-c4ccncc4)n3-c3ccccc3Cl)o2)cc1` [Compound 69], the activity at 10 µM is 26%.

`CCOc1ccc(-n2c(SCc3nnc(C)o3)nnc2-c2ccncc2)cc1` [Compound 30] had an activity at 10 µM of 78%.

As to `Cc1ccccc1-c1nnc(CSc2nnc(-c3ccncc3)n2-c2ccccc2Cl)o1` [compound 71], the activity at 10 µM was found to be 31%.

For `COc1ccc(-n2c(O)nnc2-c2ccncc2)cc1` [Compound 16], the activity at 10 µM turned out to be 71.8%.

`Cc1ccc(-n2c(SCC(=O)NC3CCCC3)nnc2-c2ccncc2)cc1` [Compound 93] came in with an activity at 10 µM of 91%.

Turning to `COc1ccc(-n2c(SCCNC(C)=O)nnc2-c2ccncc2)cc1` [Compound 33], the activity at 10 µM stood at 79.6%.

Turning to `Cc1ccc(-c2noc(CSc3nnc(-c4cccc(O)c4)n3-c3ccccc3C)n2)cc1` [Compound 45], the activity at 10 µM was found to be 78.1%.

Take `COc1ccc(-n2c(SCCc3nc(-c4ccc(C)cc4)no3)nnc2-c2ccncc2)cc1` [Compound 2]: the activity at 10 µM amounted to 31.8%.

`COc1ccc(-n2c(CCN(C)C)nnc2-c2ccncc2)cc1` [Compound 6] displayed an activity at 10 µM of 55.7%.

For `Cc1ccccc1-n1c(SCc2nc(-c3cccc(C(F)(F)F)c3)no2)ccc1-c1ccncc1` [Compound 57], the activity at 10 µM worked out at 51.8%.

With `Cc1ccc(-c2noc(CSc3nnc(-c4cccnc4)n3-c3ccccc3C)n2)cc1` [Compound 77], the activity at 10 µM was 51%.

In the case of `COc1ccc(-n2c(OCc3nc(-c4ccc(C)cc4)no3)nnc2-c2ccncc2)cc1` [Compound 4], the activity at 10 µM came to 98.4%.

`Cc1ccc(-c2nnc(CSc3nnc(-c4cnc(N)nc4)n3-c3ccccc3Cl)o2)cc1` [compound 132, 5-(5-((5-p-tolyl-1,3,4-oxadiazol-2-yl)methylthio)-4-(2-chlorophenyl)-4H-1,2,4-triazol-3-yl)pyrimidin-2-amine] showed an activity at 10 µM of 32%.

As for `Cc1ccc(-c2nc(CSc3nnc(-c4ccncc4)n3-c3ccccc3Cl)sc2C)cc1` [Compound 62], the activity at 10 µM stood at 58%.

Consider `CC1CCCCC1n1c(SCc2nnc(-c3ccccc3)o2)nnc1-c1cccnc1` (centres unmarked) [Compound 87], for which the activity at 10 µM is 52%.

On to `Cc1ccc(-c2nnc(Sc3nnc(-c4ccncc4)n3-c3ccccc3Cl)s2)cc1` [Compound 63], for which the activity at 10 µM is 99%.

The compound `Cc1ccccc1-n1c(SCC(=O)Nc2ncccn2)nnc1-c1ccncc1` [Compound 82] registered an activity at 10 µM of 83%.

Compound `Sc1nnc(-c2ccncc2)n1-c1ccc(Cl)cc1` [Compound 17] had an activity at 10 µM of 76.8%.

For `COc1ccc(-n2c(SC)nnc2-c2ccncc2)cc1` [Compound 14], the activity at 10 µM was 63.5%.

On to `Cc1ccc(-c2nnc(CSc3nnc(-c4ccncc4)n3-c3ccccc3Cl)o2)cc1Br` [compound 73], for which the activity at 10 µM turned out to be 29%.

For the compound `COc1ccc(-n2c(S)nnc2-c2ccncc2)cc1` [Compound 15], the activity at 10 µM was determined as 69.1%.

With `Cc1ccccc1-n1c(SCc2nc(-c3ccccc3Cl)no2)nnc1-c1ccncc1` [Compound 56], the activity at 10 µM worked out at 55.1%.

As for `O=C(CSc1nnc(-c2ccncc2)n1-c1ccccc1)Nc1ccccn1` [Compound 97], the activity at 10 µM was determined as 80%.

In turn, `CC(Sc1nnc(-c2ccccc2)n1-c1ccc(F)cc1F)c1nc(-c2ccncc2)no1` (centres unmarked) [Compound 80] yielded an activity at 10 µM of 32%.

In the case of `Cc1ccccc1-n1c(SCC(=O)Nc2ccc3c(c2)CCC3)nnc1-c1ccncc1` [Compound 89], the activity at 10 µM stood at 94%.

In turn, `COc1ccc(-n2c(SCc3cn4ccccc4n3)nnc2-c2ccncc2)cc1` [Compound 27] displayed an activity at 10 µM of 80.3%.
